Source: patent US20180368410A1, “MICROBIOCIDAL OXADIAZOLE DERIVATIVES” (SYNGENTA PARTICIPATIONS AG, priority 2015, published 2018)

Assays:
[1] = test system: Glomerella Lacenarium (Colletotrichum lacenarium); experiment: Glomerella lagenarium (Colletotrichum lagenarium) liquid culture / cucumber / preventative (anthracnose); type: cell-based; conditions: 20 ppm in the applied formulation, liquid culture in PDB, 24° C., inhibition of growth measured photometrically 3 to 4 days after application, vs untreated control, read-out: disease control
Procedure, shortened: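 In liquid culture, cryo-stored conidia in potato dextrose broth were exposed to compound delivered from DMSO solution. Growth inhibition was measured photometrically after 3 to 4 days at 24° C.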

[2] = test system: Puccinia recondita f. Sp. Tritici; experiment: Puccinia recondita f. sp. tritici / wheat / leaf disc preventative (brown rust); type: in vivo, Puccinia recondita f. sp. tritici on wheat cv. Kanzler; conditions: foliar, 200 ppm in the applied formulation, inoculated 1 day after application, assessed 7 to 9 days after application, vs untreated control leaf disks, read-out: disease control
Procedure, shortened: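 Wheat cv. Kanzler leaf segments on agar were sprayed with compound (DMSO stock diluted with 0.025% Tween20) 1 day before inoculation with spores. Segments were held at 19 °C, 75% rh, 12 h light/dark. Percent disease control versus untreated was scored 7–9 days after application.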

[3] = test system: Phakopsora pachyrhizi; experiment: Phakopsora pachyrhizi / soybean / leaf disc preventative (Asian soybean rust); type: in vivo, Phakopsora pachyrhizi on soybean; conditions: foliar, 200 ppm in the applied formulation, inoculated one day after application, assessed 12 to 14 days after application, vs untreated control leaf disks, read-out: disease control
Procedure, shortened: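 Read-out is percent disease control relative to untreated check discs, assessed once untreated discs show adequate disease, 12 to 14 days after application. Compounds, tested at 200 ppm in the applied formulation, are sprayed onto soybean leaf discs one day before inoculation with a spore suspension.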

[4] = test system: Puccinia recondita f. Sp. Triticil; experiment: Puccinia recondita f. sp. tritici / wheat / leaf disc curative (brown rust); type: in vivo, Puccinia recondita f. sp. tritici on wheat cv. Kanzler; conditions: foliar, 200 ppm in the applied formulation, applied 1 day after inoculation, assessed 6 to 8 days after application, vs untreated control leaf disks, read-out: disease control
Procedure, shortened: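 Spray application came one day after spore inoculation of Kanzler wheat leaf segments kept on agar. Conditions: 19° C, 75% relative humidity, dark before treatment and 12 h light/12 h dark after. Efficacy = % disease control compared with untreated, 6–8 days post-application.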

[5] = test system: Uromyces viciae-Fabael; experiment: Uromyces viciae-fabae / field bean / leaf disc preventative (faba-bean rust); type: in vivo, Uromyces viciae-fabae on field bean; conditions: foliar, 288 h, 100 ppm in the applied formulation, inoculated two hours after application, assessed 12 days after application, vs untreated control leaf discs, read-out: disease control
Description: Leaf disks or leaf segments of various plant species are cut from plants grown in a greenhouse. The cut leaf disks or segments are placed in multiwell plates (24-well format) onto water agar. The leaf disks are sprayed with a test solution before (preventative) or after (curative) inoculation. Compounds to be tested are prepared as DMSO solutions (max. 10 mg/ml) which are diluted to the appropriate concentration with 0.025% Tween20 just before spraying. The inoculated leaf disks or segments are incubated under defined conditions (temperature, relative humidity, light, etc.) according to the respective test system. A single evaluation of disease level is carried out 3 to 14 days after inoculation, depending on the pathosystem. Percent disease control relative to the untreated check leaf disks or segments is then calculated.
Field bean leaf discs are placed on water agar in multiwell plates (96-well format) and 10 μl of the formulated test compound diluted in acetone and a spreader pipetted onto the leaf disc. Two hours after application leaf discs are inoculated by spraying a spore suspension on the lower leaf surface. The leaf discs are incubated in a climate cabinet at 22° C. with 18 hour day and 70% relative humidity. The activity of a compound is assessed as percent disease control compared to untreated when an appropriate level of disease damage appears in untreated check leaf disks (12 days after application).
The following compounds at 100 ppm in the applied formulation give at least 80% disease control in this test when compared to untreated control leaf discs under the same conditions, which show extensive disease development.

Row | Compound | inhibition of growth at 20 ppm [1] [%] | pest or weed control at 200 ppm [2] [%] | melting point [°C] | pest or weed control at 200 ppm [3] [%] | pest or weed control at 200 ppm [4] [%] | pest or weed control at 100 ppm [5] [%]
1 | O=C(NCc1ccc(-c2noc(C(F)(F)F)n2)c(F)c1F)c1ccccc1Cl [Compound 1.56, 2-chloro-N-[[2,3-difluoro-4-[5-(trifluoromethyl)-1,2,4-oxadiazol-3-yl]phenyl]methyl] benzamide] | ≥ 80 | ≥ 80 | 144 to 150 | ≥ 80 |  | 
2 | COc1ccccc1CC(=O)NCc1ccc(-c2noc(C(F)(F)F)n2)cc1 [Compound 1.23, 2-(2-methoxyphenyl)-N-[[4-[5-(trifluoromethyl)-1,2,4-oxadiazol-3-yl]phenyl]methyl]acetamide] |  | ≥ 80 |  |  | ≥ 80 | ≥ 80
3 | O=C(NCc1ccc(-c2noc(C(F)(F)F)n2)cc1)C1CCSCC1 [Compound 1.27, N-[[4-[5-(trifluoromethyl)-1,2,4-oxadiazol-3-yl]phenyl]methyl] tetrahydrothiopyran-4-carboxamide] |  | ≥ 80 |  | ≥ 80 |  | ≥ 80
4 | COc1ccccc1C(=O)NCc1ccc(-c2noc(C(F)(F)F)n2)cc1 [Compound 1.6, 2-methoxy-N-[[4-[5-(trifluoromethyl)-1,2,4-oxadiazol-3-yl]phenyl]methyl]benzamide] | ≥ 80 | ≥ 80 |  | ≥ 80 | ≥ 80 | ≥ 80
5 | O=C(NCc1ccc(-c2noc(C(F)(F)F)n2)cc1)C1CCOC1 (centres unmarked) [Compound 1.18, N-[[4-[5-(trifluoromethyl)-1,2,4-oxadiazol-3-yl]phenyl]methyl] tetrahydrofuran-3-carboxamide] | ≥ 80 | ≥ 80 |  | ≥ 80 | ≥ 80 | ≥ 80
6 | O=C(NCc1ccc(-c2noc(C(F)(F)F)n2)nc1)c1ccccc1Cl [Compound 1.95, 2-chloro-N-[[6-[5-(trifluoromethyl)-1,2,4-oxadiazol-3-yl]-3-pyridyl]methyl] benzamide] |  | ≥ 80 | 106 to 113 |  |  | 
7 | O=C(Cc1ccccc1)NCc1ccc(-c2noc(C(F)(F)F)n2)cc1 [Compound 1.26, 2-phenyl-N-[[4-[5-(trifluoromethyl)-1,2,4-oxadiazol-3-yl]phenyl]methyl]acetamide] | ≥ 80 | ≥ 80 |  | ≥ 80 | ≥ 80 | ≥ 80
8 | O=C(CC1CC1(F)F)NCc1ccc(-c2noc(C(F)(F)F)n2)cc1 (centres unmarked) [Compound 1.32, 2-(2,2-difluorocyclopropyl)-N-[[4-[5-(trifluoromethyl)-1,2,4-oxadiazol-3-yl]phenyl]methyl]acetamide] | ≥ 80 | ≥ 80 |  | ≥ 80 | ≥ 80 | ≥ 80
9 | N#Cc1ccc(CC(=O)NCc2ccc(-c3noc(C(F)(F)F)n3)cc2)cc1 [Compound 1.30, 2-(4-cyanophenyl)-N-[[4-[5-(trifluoromethyl)-1,2,4-oxadiazol-3-yl]phenyl]methyl]acetamide] |  | ≥ 80 |  | ≥ 80 |  | ≥ 80
10 | O=C(Cc1cccnc1)NCc1ccc(-c2noc(C(F)(F)F)n2)cc1 [Compound 1.17, 2-(3-pyridyl)-N-[[4-[5-(trifluoromethyl)-1,2,4-oxadiazol-3-yl]phenyl]methyl]acetamide] |  | ≥ 80 |  |  | ≥ 80 | ≥ 80
11 | COc1cccc(C2(C(=O)NCc3ccc(-c4noc(C(F)(F)F)n4)cc3)CC2)c1 [Compound 1.37, 1-(3-methoxyphenyl)-N-[[4-[5-(trifluoromethyl)-1,2,4-oxadiazol-3-yl]phenyl]methyl] cyclopropanecarboxamide] |  |  |  |  | ≥ 80 | ≥ 80
12 | Cc1cccc(C)c1C(=O)NCc1ccc(-c2noc(C(F)(F)F)n2)cc1 [Compound 1.19, 2,6-dimethyl-N-[[4-[5-(trifluoromethyl)-1,2,4-oxadiazol-3-yl]phenyl]methyl]benzamide] | ≥ 80 | ≥ 80 |  | ≥ 80 |  | ≥ 80
13 | O=C(NCc1ccc(-c2noc(C(F)(F)F)n2)cc1)C1(c2ccccc2)CC1 [Compound 1.14, 1-phenyl-N-[[4-[5-(trifluoromethyl)-1,2,4-oxadiazol-3-yl]phenyl]methyl] cyclopropanecarboxamide] | ≥ 80 | ≥ 80 |  |  |  | ≥ 80
14 | O=C(NCCc1ccc(-c2noc(C(F)(F)F)n2)cc1)c1ccccc1Cl [Compound 1.99, 2-chloro-N-[2-[4-[5-(trifluoromethyl)-1,2,4-oxadiazol-3-yl]phenyl]ethyl]benzamide] |  | ≥ 80 | 133 to 140 | ≥ 80 |  | 
15 | O=C(NCc1ccc(-c2noc(C(F)(F)F)n2)c(F)c1)c1ccccc1Cl [Compound 1.58, 2-chloro-N-[[3-fluoro-4-[5-(trifluoromethyl)-1,2,4-oxadiazol-3-yl]phenyl]methyl] benzamide] | ≥ 80 | ≥ 80 | 146 to 148 | ≥ 80 |  | 
16 | CC1(C(=O)NCc2ccc(-c3noc(C(F)(F)F)n3)cc2)CC1(Cl)Cl (centres unmarked) [Compound 1.20, 2,2-dichloro-1-methyl-N-[[4-[5-(trifluoromethyl)-1,2,4-oxadiazol-3-yl]phenyl]methyl] cyclopropanecarboxamide] | ≥ 80 | ≥ 80 |  |  |  | ≥ 80
17 | O=C(NCc1ccc(-c2noc(C(F)(F)F)n2)cc1)c1ccccc1 [Compound 1.40, N-[[4-[5-(trifluoromethyl)-1,2,4-oxadiazol-3-yl]phenyl]methyl]benzamide] | ≥ 80 | ≥ 80 |  |  | ≥ 80 | ≥ 80
18 | O=C(NCc1ccc(-c2noc(C(F)(F)F)n2)cc1)C1(c2ccc(Cl)cc2)CC1 [Compound 1.39, 1-(4-chlorophenyl)-N-[[4-[5-(trifluoromethyl)-1,2,4-oxadiazol-3-yl]phenyl]methyl] cyclopropanecarboxamide] |  |  |  | ≥ 80 |  | ≥ 80
19 | O=C(NCc1ccc(-c2noc(C(F)(F)F)n2)cc1)C1CC1c1ccccc1 (centres unmarked) [Compound 1.15, 2-phenyl-N-[[4-[5-(trifluoromethyl)-1,2,4-oxadiazol-3-yl]phenyl]methyl] cyclopropanecarboxamide] | ≥ 80 | ≥ 80 |  |  |  | ≥ 80
20 | O=C(NCc1ccc(-c2noc(C(F)(F)F)n2)nc1)C1CCCO1 (centres unmarked) [Compound 1.94, N-[[6-[5-(trifluoromethyl)-1,2,4-oxadiazol-3-yl]-3-pyridyl]methyl] tetrahydrofuran-2-carboxamide] |  |  | 84 to 88 |  | ≥ 80 | 
21 | O=C(Cc1ccc(Cl)cc1)NCc1ccc(-c2noc(C(F)(F)F)n2)cc1 [Compound 1.29, 2-(4-chlorophenyl)-N-[[4-[5-(trifluoromethyl)-1,2,4-oxadiazol-3-yl]phenyl]methyl]acetamide] |  | ≥ 80 |  | ≥ 80 |  | ≥ 80
